Results: patent US12552783B2, “Modulators of proteolysis and associated methods of use” (Arvinas Operations, Inc., priority 2018, dated 2026)

Target: KRas (Homo sapiens, UniProt P01116, G12C)
Assay: KRas degradation in NCI-H2030 cells by Western blot, normalized to GAPDH (data of Table 14)
Assay type: cell-based
Design: host or cells: NCI-H2030
Conditions: for Dmax: NCI-H2030
Method in brief: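 Degradation of endogenous homozygous G12C KRas is measured by immunoblot after serum starvation and compound exposure at three final concentrations (0.3, 1 and 3 μM). VHL-recruiting compounds are incubated 24 h and all others 72 h. Percent loss is calculated from GAPDH-normalized KRas relative to vehicle.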

Row | SMILES | Percent Degradation at Indicated Concentration (μM) (H2030 cells, 0.3 μM) | Percent Degradation at Indicated Concentration (μM) (H2030 cells, 1 μM) | Percent Degradation at Indicated Concentration (μM) (H2030 cells, 3 μM) | Percent Degradation at Indicated Concentration (μM) (H2030, 0.3 μM) | Percent Degradation at Indicated Concentration (μM) (H2030, 1 μM) | Percent Degradation at Indicated Concentration (μM) (H2030, 3 μM) | Dmax
1 | C=CC(=O)N1CCN(c2nc(O[C@H](C)CN3CCC(OCCOCC(=O)N[C@H](C(=O)N4C[C@H](O)C[C@H]4C(=O)N[C@@H](C)c4ccc(-c5scnc5C)cc4)C(C)(C)C)CC3)nc3c2CCN(c2cc(O)cc4ccccc24)C3)CC1 [compound 406, (2S,4R)-1-((S)-2-(2-(2-((1-((R)-2-((4-(4-acryloylpiperazin-1-yl)-7-(3-hydroxynaphthalen-1-yl)-5,6,7,8-tetrahydropyrido[3,4-d]pyrimidin-2-yl)oxy)propyl)piperidin-4-yl)oxy)ethoxy)acetamido)-3,3-dimethylbutanoyl)-4-hydroxy-N-((S)-1-(4-(4-methylthiazol-5-yl)phenyl)ethyl)pyrrolidine-2-carboxamide] | C (Percent Degradation: C ≤ 35) | C (Percent Degradation: C ≤ 35) | C (Percent Degradation: C ≤ 35) | – | – | – | –
2 | C=CC(=O)N1CCN(c2nc(O[C@H](C)CN3CCC(OCCOCCOCC(=O)N[C@H](C(=O)N4C[C@H](O)C[C@H]4C(=O)N[C@@H](C)c4ccc(-c5scnc5C)cc4)C(C)(C)C)CC3)nc3c2CCN(c2cc(O)cc4ccccc24)C3)CC1 [compound 407, (2S,4R)-1-((S)-2-(2-(2-(2-((1-((R)-2-((4-(4-acryloylpiperazin-1-yl)-7-(3-hydroxynaphthalen-1-yl)-5,6,7,8-tetrahydropyrido[3,4-d]pyrimidin-2-yl)oxy)propyl)piperidin-4-yl)oxy)ethoxy)ethoxy)acetamido)-3,3-dimethylbutanoyl)-4-hydroxy-N-((S)-1-(4-(4-methylthiazol-5-yl)phenyl)ethyl)pyrrolidine-2-carboxamide] | C (Percent Degradation: C ≤ 35) | C (Percent Degradation: C ≤ 35) | C (Percent Degradation: C ≤ 35) | – | – | – | –
3 | C=CC(=O)N1CCN(c2nc(O[C@H](C)CN3CCC(OCCOCCOCCOCC(=O)N[C@H](C(=O)N4C[C@H](O)C[C@H]4C(=O)N[C@@H](C)c4ccc(-c5scnc5C)cc4)C(C)(C)C)CC3)nc3c2CCN(c2cc(O)cc4ccccc24)C3)CC1 [compound 408] | C (Percent Degradation: C ≤ 35) | C (Percent Degradation: C ≤ 35) | C (Percent Degradation: C ≤ 35) | – | – | – | –
4 | C=CC(=O)N1CCN(c2nc(O[C@H](C)CN3CCC(OCCOCCOCCOCCOCCOCC(=O)N[C@H](C(=O)N4C[C@H](O)C[C@H]4C(=O)N[C@@H](C)c4ccc(-c5scnc5C)cc4)C(C)(C)C)CC3)nc3c2CCN(c2cc(O)cc4ccccc24)C3)CC1 [compound 410, (2S,4R)-1-((S)-20-((1-((R)-2-((4-(4-acryloylpiperazin-1-yl)-7-(3-hydroxynaphthalen-1-yl)-5,6,7,8-tetrahydropyrido[3,4-d]pyrimidin-2-yl)oxy)propyl)piperidin-4-yl)oxy)-2-(tert-butyl)-4-oxo-6,9,12,15,18-pentaoxa-3-azaicosanoyl)-4-hydroxy-N-((S)-1-(4-(4-methylthiazol-5-yl)phenyl)ethyl)pyrrolidine-2-carboxamide] | C (Percent Degradation: C ≤ 35) | C (Percent Degradation: C ≤ 35) | C (Percent Degradation: C ≤ 35) | – | – | – | –
5 | C=CC(=O)N1CCN(c2nc(O[C@H](C)CN3CCC(OCCOCCOCCOCCNc4cccc5c4C(=O)N(C4CCC(=O)NC4=O)C5=O)CC3)nc3c2CCN(c2cc(O)cc4ccccc24)C3)CC1 (some centres unmarked) [compound 414] | C (Percent Degradation: C ≤ 35) | C (Percent Degradation: C ≤ 35) | C (Percent Degradation: C ≤ 35) | – | – | – | –
6 | C=CC(=O)N1CCN(c2nc(O[C@H](C)CN3CCC(OCCOCCOCCOc4ccc5c(c4)CN(C4CCC(=O)NC4=O)C5=O)CC3)nc3c2CCN(c2cc(O)cc4ccccc24)C3)CC1 (stereo partly drawn) [compound 423, 3-(5-(2-(2-(2-((1-((R)-2-((4-(4-acryloylpiperazin-1-yl)-7-(3-hydroxynaphthalen-1-yl)-5,6,7,8-tetrahydropyrido[3,4-d]pyrimidin-2-yl)oxy)propyl)piperidin-4-yl)oxy)ethoxy)ethoxy)ethoxy)-1-oxoisoindolin-2-yl)piperidine-2,6-dione] | C (Percent Degradation: C ≤ 35) | C (Percent Degradation: C ≤ 35) | C (Percent Degradation: C ≤ 35) | – | – | – | –
7 | C=CC(=O)N1CCN(c2nc(NCCC(=O)N(C)CCOc3ccc4c(c3)C(=O)N(C3CCC(=O)NC3=O)C4=O)nc3c(F)c(-c4cc(O)cc5ccccc45)c(Cl)cc23)CC1 (centres unmarked) [compound 467, 3-((4-(4-acryloylpiperazin-1-yl)-6-chloro-8-fluoro-7-(3-hydroxynaphthalen-1-yl)quinazolin-2-yl)amino)-N-(2-((2-(2,6-dioxopiperidin-3-yl)-1,3-dioxoisoindolin-5-yl)oxy)ethyl)-N-methylpropanamide] | – | – | – | C (Percent Degradation: C ≤ 35) | C (Percent Degradation: C ≤ 35) | C (Percent Degradation: C ≤ 35) | ≤ 35%
8 | CN(C)C(=O)CCNc1nc(N2CCN(C(=O)/C=C/CCOc3ccc4c(c3)C(=O)N(C3CCC(=O)NC3=O)C4=O)CC2)c2cc(Cl)c(-c3cc(O)cc4ccccc34)c(F)c2n1 (centres unmarked) [compound 468] | – | – | – | C (Percent Degradation: C ≤ 35) | C (Percent Degradation: C ≤ 35) | C (Percent Degradation: C ≤ 35) | ≤ 35%

Further lines, results first:

Row | Percent Degradation at Indicated Concentration (μM) (H2030 cells, 0.3 μM) | Percent Degradation at Indicated Concentration (μM) (H2030 cells, 1 μM) | Percent Degradation at Indicated Concentration (μM) (H2030 cells, 3 μM) | Percent Degradation at Indicated Concentration (μM) (H2030, 0.3 μM) | Percent Degradation at Indicated Concentration (μM) (H2030, 1 μM) | Percent Degradation at Indicated Concentration (μM) (H2030, 3 μM) | Dmax | SMILES
9 | C (Percent Degradation: C ≤ 35) | C (Percent Degradation: C ≤ 35) | C (Percent Degradation: C ≤ 35) | – | – | – | – | C=CC(=O)N1CCN(c2nc(O[C@H](C)CN3CCC(OCCOCCNc4cccc5c4C(=O)N(C4CCC(=O)NC4=O)C5=O)CC3)nc3c2CCN(c2cc(O)cc4ccccc24)C3)CC1 (some centres unmarked) [compound 412]
10 | C (Percent Degradation: C ≤ 35) | C (Percent Degradation: C ≤ 35) | C (Percent Degradation: C ≤ 35) | – | – | – | – | C=CC(=O)N1CCN(c2nc(O[C@H](C)CN3CCC(OCCOCCOCCNc4cccc5c4C(=O)N(C4CCC(=O)NC4=O)C5=O)CC3)nc3c2CCN(c2cc(O)cc4ccccc24)C3)CC1 (stereo partly drawn) [compound 413, 4-((2-(2-(2-((1-((R)-2-((4-(4-acryloylpiperazin-1-yl)-7-(3-hydroxynaphthalen-1-yl)-5,6,7,8-tetrahydropyrido[3,4-d]pyrimidin-2-yl)oxy)propyl)piperidin-4-yl)oxy)ethoxy)ethoxy)ethyl)amino)-2-(2,6-dioxopiperidin-3-yl)isoindoline-1,3-dione]
11 | C (Percent Degradation: C ≤ 35) | C (Percent Degradation: C ≤ 35) | C (Percent Degradation: C ≤ 35) | – | – | – | – | C=CC(=O)N1CCN(c2nc(O[C@H](C)CN3CCC(OCCOc4ccc5c(c4)C(=O)N(C4CCC(=O)NC4=O)C5=O)CC3)nc3c2CCN(c2cc(O)cc4ccccc24)C3)CC1 (stereo partly drawn) [compound 416, 5-(2-((1-((R)-2-((4-(4-acryloylpiperazin-1-yl)-7-(3-hydroxynaphthalen-1-yl)-5,6,7,8-tetrahydropyrido[3,4-d]pyrimidin-2-yl)oxy)propyl)piperidin-4-yl)oxy)ethoxy)-2-(2,6-dioxopiperidin-3-yl)isoindoline-1,3-dione]
12 | C (Percent Degradation: C ≤ 35) | C (Percent Degradation: C ≤ 35) | C (Percent Degradation: C ≤ 35) | – | – | – | – | C=CC(=O)N1CCN(c2nc(O[C@H](C)CN3CCC(OCCOCCOCCOc4ccc5c(c4)C(=O)N(C4CCC(=O)NC4=O)C5=O)CC3)nc3c2CCN(c2cc(O)cc4ccccc24)C3)CC1 (stereo partly drawn) [compound 418, 5-(2-(2-(2-((1-((R)-2-((4-(4-acryloylpiperazin-1-yl)-7-(3-hydroxynaphthalen-1-yl)-5,6,7,8-tetrahydropyrido[3,4-d]pyrimidin-2-yl)oxy)propyl)piperidin-4-yl)oxy)ethoxy)ethoxy)ethoxy)-2-(2,6-dioxopiperidin-3-yl)isoindoline-1,3-dione]
13 | C (Percent Degradation: C ≤ 35) | C (Percent Degradation: C ≤ 35) | C (Percent Degradation: C ≤ 35) | – | – | – | – | C=CC(=O)N1CCN(c2nc(O[C@H](C)CN3CCC(OCCOCCOCCOCCOc4ccc5c(c4)C(=O)N(C4CCC(=O)NC4=O)C5=O)CC3)nc3c2CCN(c2cc(O)cc4ccccc24)C3)CC1 (stereo partly drawn) [compound 419, 5-(2-(2-(2-(2-((1-((R)-2-((4-(4-acryloylpiperazin-1-yl)-7-(3-hydroxynaphthalen-1-yl)-5,6,7,8-tetrahydropyrido[3,4-d]pyrimidin-2-yl)oxy)propyl)piperidin-4-yl)oxy)ethoxy)ethoxy)ethoxy)ethoxy)-2-(2,6-dioxopiperidin-3-yl)isoindoline-1,3-dione]
14 | C (Percent Degradation: C ≤ 35) | C (Percent Degradation: C ≤ 35) | C (Percent Degradation: C ≤ 35) | – | – | – | – | C=CC(=O)N1CCN(c2nc(O[C@H](C)CN3CCC(OCCOCCOc4ccc5c(c4)CN(C4CCC(=O)NC4=O)C5=O)CC3)nc3c2CCN(c2cc(O)cc4ccccc24)C3)CC1 (stereo partly drawn) [compound 422, 3-(5-(2-(2-((1-((R)-2-((4-(4-acryloylpiperazin-1-yl)-7-(3-hydroxynaphthalen-1-yl)-5,6,7 ,8-tetrahydropyrido[3,4-d]pyrimidin-2-yl)oxy)propyl)piperidin-4-yl)oxy)ethoxy)ethoxy)-1-oxoisoindolin-2-yl)piperidine-2,6-dione]
